Laboratory results: patent US10175228B2, “Method of using transmembrane channel-like protein 6 (TMC6) protein to identify substances affecting salty taste” (priority 2016, dated 2019)
Structures can show the parent of a compound that is named as a salt.

What was measured:
mouse TMC6 protein = target: T1, mouse TMC6 protein (Mus musculus, UniProt Q7TN60, A788T); experiment: Calcium imaging (YC2.60 FRET) of CHO-K1 cells expressing the mouse TMC6 gene; type: cell-based; details: one typical TMC6-expressing cell, stimulation with ATP stimulation solution (50 μM ATP), FIG. 13C
T1 construct: expressed in transfected cells; host or cells: CHO-K1
T1 sequence (Q7TN60 1-810 A788T): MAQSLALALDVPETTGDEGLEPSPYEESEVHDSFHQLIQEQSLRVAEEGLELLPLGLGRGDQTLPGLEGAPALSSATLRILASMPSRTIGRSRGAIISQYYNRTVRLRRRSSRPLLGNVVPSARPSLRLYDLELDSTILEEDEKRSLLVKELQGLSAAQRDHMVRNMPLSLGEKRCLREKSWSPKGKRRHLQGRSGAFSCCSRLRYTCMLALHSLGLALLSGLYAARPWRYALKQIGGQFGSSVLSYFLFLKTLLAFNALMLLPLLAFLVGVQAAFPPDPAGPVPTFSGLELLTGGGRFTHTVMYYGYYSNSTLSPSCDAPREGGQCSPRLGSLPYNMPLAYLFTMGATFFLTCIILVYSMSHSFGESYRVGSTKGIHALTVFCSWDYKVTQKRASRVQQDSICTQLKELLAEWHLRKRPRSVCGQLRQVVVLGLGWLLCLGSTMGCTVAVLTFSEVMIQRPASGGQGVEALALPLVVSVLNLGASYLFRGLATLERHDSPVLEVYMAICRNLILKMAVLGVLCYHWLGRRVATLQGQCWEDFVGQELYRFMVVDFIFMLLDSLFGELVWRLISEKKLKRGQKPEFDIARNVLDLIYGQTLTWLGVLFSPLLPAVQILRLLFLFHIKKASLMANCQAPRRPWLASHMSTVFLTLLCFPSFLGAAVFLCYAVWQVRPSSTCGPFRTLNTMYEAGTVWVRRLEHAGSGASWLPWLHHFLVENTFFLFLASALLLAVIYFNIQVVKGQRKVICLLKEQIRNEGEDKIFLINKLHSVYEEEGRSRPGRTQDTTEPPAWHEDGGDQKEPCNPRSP
Procedure: CHO-K1 cells were transfected with TMC6-pcDNA3.1 or pcDNA3.1 in combination with YC2.60-pcDNA, to prepare TMC6-expressing cells (cells expressing the mouse TMC6 gene and the YC2.60 gene) and control cells (cells expressing the YC2.60 gene). The prepared cells were stimulated, and activation of the cells was measured. The procedure was as follows.
That is, first, CHO-K1 cells (ATCC) were inoculated into a culture dish having a diameter of 60 mm while adjusting the number of the cells to obtain 60% confluence, and cultured for 8 hr. As the medium, 5 mL of Ham's F-12K (Kaighn's) (Life Technologies) containing 10% fetal bovine serum (Life Technologies) was used. A 15 μL aliquot of FuGENE 6 (Promega) was added to 235 μL of Opti-MEM (Thermo Fisher Scientific), and incubated for 5 min at a room temperature. Then, 0.625 μg of TMC6-pcDNA3.1 and 2.5 μg of YC2.60-pcDNA were further added thereto, and incubated for 15 min at a room temperature. Then, the whole of the resultant mixture was dropped into the culture broth of the CHO-K1 cells, and the culture broth was mildly stirred. Then, the cells were further cultured for 18 hr under a condition of 5% CO2 at 37° C., to obtain the TMC6-expressing cells. Similarly, the control cells were obtained through transfection using pcDNA3.1 instead of TMC6-pcDNA3.1.
After the cultivation, the culture broth was removed. A low-concentration NaCl solution (27 mM NaCl, 1 mM KCl, 0.4 mM CaCl2, 0.2 mM MgCl2, 2 mM Hepes (pH7.3), 1 mM NaHCO3, 2 mM glucose, 2 mM sodium pyruvate, and 112 mM NMDG-Cl) was added to the culture dish, incubation was carried out statically for 5 min, and then, stimulation and observation of cells were started. First, the low-concentration NaCl solution was perfused for approximately 80 sec, to provide a ground state. Then, a high-concentration NaCl solution (135 mM NaCl, 1 mM KCl, 0.4 mM CaCl2, 0.2 mM MgCl2, 2 mM Hepes (pH7.3), 1 mM NaHCO3, 2 mM glucose, and 2 mM sodium pyruvate) was perfused instead of the low-concentration NaCl solution for approximately 60 sec, to stimulate the cells. […]

[1] = test system: wild-type C57BL/6J mouse and homo knockout mouse of the TMC6 gene; experiment: Palatability tests for taste substances other than NaCl, two-bottle method; type: in vivo; details: 48 hr, taste substance aqueous solution versus control aqueous solution
Procedure: <Taste Substance Aqueous Solutions>
MSG: 100 mM monosodium glutamate
MSG+IMP: 100 mM monosodium glutamate+1 mM inosinic acid
Citric Acid: 10 mM citric acid
Quinine HCl: 0.3 mM quinine hydrochloride
Fructose: 300 mM fructose

relative FRET value (YFP/CFP) of the ROI-1 cell (mouse TMC6 protein)	Compound	difference in palatability or repellency between Tmc6 −/− mouse and wild-type mouse [1]
≥ 1.3	Nc1ncnc2c1ncn2[C@@H]1O[C@H](COP(=O)(O)OP(=O)(O)OP(=O)(O)O)[C@@H](O)[C@H]1O [ATP]	–
–	O=C(O)CC(O)(CC(=O)O)C(=O)O [Citric acid, citric acid]	No difference
–	O=C(CO)[C@@H](O)[C@H](O)[C@H](O)CO [Fructose, fructose]	No difference
–	N[C@@H](CCC(=O)O)C(=O)[O-].[Na+] [MSG, monosodium glutamate]	No difference
–	C=C[C@H]1C[N@@]2CC[C@H]1C[C@H]2[C@H](O)c1ccnc2ccc(OC)cc12 [Quinine HCl, quinine hydrochloride]	No difference
–	OC[C@H]1O[C@@](CO)(O[C@H]2O[C@H](CO)[C@@H](O)[C@H](O)[C@H]2O)[C@@H](O)[C@@H]1O [Sucrose, sucrose]	No difference
